In general, IC50 refers to the concentration needed to halve the response being measured. Higher therefore signals weaker potency in that assay. What is called GI50 is the concentration at which growth is held to half of that of the control. A high value points to lower sensitivity of the cells.

The subject of one test is A549. The experiment in a line: Cytotoxic activity against A-549 cell lines. The test is classed as functional, cell-based. To be noted: Homo sapiens.
The test system of another test is SK-MEL-28. The experiment in a line: Cytotoxic activity against MEL-28 cell lines. The test is classed as functional, cell-based. To be noted: Homo sapiens.
In another test the test system is HT-29. In words: Cytotoxic activity against HT-29 cell lines. Format: functional, cell-based. To be noted: Homo sapiens.
The test system of the next test is P388. The experiment in a line: Cytotoxic activity against P-388 cell lines. Format: functional, cell-based. As to conditions: Mus musculus.
In another test the test system is SNB-75. The experiment in a line: Cytotoxic activity against SNB-75 CNS tumor cell line cell lines. Format: functional. As to conditions: Homo sapiens.
The test system of the next test is BT-549. In words: Cytotoxic activity against […] breast cancer cell lines. As to conditions: Homo sapiens. Format: functional.
The next test deals with T47D. The experiment in a line: Cytotoxic activity against T-47D breast cancer cell lines. The test is classed as functional. As to conditions: Homo sapiens.
For a further test, the system named is HOP-92. The experiment in a line: Cytotoxic activity against HOP-92 non small cell lung cancer cell lines. The test is classed as functional. To be noted: Homo sapiens.
The subject of a further test is SNB-19. The experiment in a line: Cytotoxic activity against SNB-19 CNS tumor cell lines. The test is classed as functional. To be noted: Homo sapiens.
The subject of the next test is HL-60. In words: Cytotoxic activity against HL-60(TB) leukemia cell lines. The test is classed as functional. To be noted: Homo sapiens.
For another test, the system named is MDA-N. In words: Cytotoxic activity against MDA-N breast cancer cell lines. Format: functional. As to conditions: Homo sapiens.
In a further test the test system is U-251. The experiment in a line: Cytotoxic activity against U251 CNS tumor cell line cell lines. Format: functional. To be noted: Homo sapiens.
The next test relates to RXF 393. The experiment in a line: Cytotoxic activity against […] renal cancer cell lines. To be noted: Homo sapiens. The test is classed as functional.
In the next test the test system is K562. The experiment in a line: Cytotoxic activity against K-562 leukemia cell lines. The test is classed as functional. To be noted: Homo sapiens.
Another test deals with MDA-MB-435. In words: Cytotoxic activity against MDA-MB-435 breast cancer cell lines. Format: functional. As to conditions: Homo sapiens.
For a further test, the system named is HOP-62. In words: Cytotoxic activity against HOP-62 non small cell lung cancer cell lines. Format: functional. To be noted: Homo sapiens.
A further test deals with SK-MEL-2. The experiment in a line: Cytotoxic activity against SK-MEL-2 melanoma cell lines. Format: functional. To be noted: Homo sapiens.
The next test relates to UACC-62. The experiment in a line: Cytotoxic activity against UACC-62 melanoma cell lines. To be noted: Homo sapiens. The test is classed as functional.
The next test relates to A498. The experiment in a line: Cytotoxic activity against A 498 renal cancer cell lines. Format: functional. As to conditions: Homo sapiens.
The test system of another test is OVCAR-4. The experiment in a line: Cytotoxic activity against OVCAR-4 ovarian cancer cell lines. As to conditions: Homo sapiens. Format: functional.

For `COc1cc([C@@H]2Cc3[nH]c4ccc(Br)cc4c3[C@@H]3C(=O)N(c4ccccc4)C(=O)[C@H]23)cc(OC)c1OC`, the IC50 in the test on A549, with SK-MEL-28, in the test on HT-29 and in the test with P388 was greater than 17.8 µM throughout.

With `COc1cc([C@@H]2Cc3[nH]c4ccccc4c3[C@@H]3C(=O)N(c4ccccc4)C(=O)[C@H]23)cc(OC)c1OC`, the GI50 with SNB-75 is 26.9 µM; in the test with BT-549 it was 25.1 µM; in the test with T47D it was 25.1 µM; with HOP-92, 13.2 µM; in the test on SNB-19, 25.7 µM; in the test with HL-60, 31.6 µM. The GI50 is 30.2 µM in the test with MDA-N; 34.7 µM in the test on U-251; 20.4 µM in the test with RXF 393; 31.6 µM with K562; 21.9 µM with MDA-MB-435; 16.2 µM in the test on HOP-62. Moreover, the GI50 was 27.5 µM in the test on SK-MEL-2, 24 µM in the test on UACC-62, 33.1 µM in the test on A498 and 26.9 µM in the test on OVCAR-4. Further, the IC50 with A549 was 2.1 µM; in the test on SK-MEL-28, 2.1 µM; in the test with HT-29, 2.1 µM; in the test on P388 it was 0.5 µM.

For the compound `COc1cc([C@@H]2Cc3[nH]c4ccc(C)cc4c3[C@@H]3C(=O)N(c4ccccc4)C(=O)[C@H]23)cc(OC)c1OC`, the IC50 in the test on A549, with SK-MEL-28, with HT-29 and in the test with P388 was 20.1 µM in each case.
